Where a name gives a salt, the structure may show the parent alone.
The compounds below were run against T1, human recombinant SHP2 (Homo sapiens, UniProt Q06124) (assay: Protein Tyrosine Phosphatase (PTP) assay and IC50 measurements of inhibitors (DiFMUP fluorescence)). Conditions: 100 ng/mL human recombinant SHP2, 0.5 μM activating peptide IRS1_pY1172(dPEG8)pY1222, substrate DiFMUP 200 μM, room temperature; read-out: IC50 (SHP2 inhibition).
T1 sequence (Q06124 1-593): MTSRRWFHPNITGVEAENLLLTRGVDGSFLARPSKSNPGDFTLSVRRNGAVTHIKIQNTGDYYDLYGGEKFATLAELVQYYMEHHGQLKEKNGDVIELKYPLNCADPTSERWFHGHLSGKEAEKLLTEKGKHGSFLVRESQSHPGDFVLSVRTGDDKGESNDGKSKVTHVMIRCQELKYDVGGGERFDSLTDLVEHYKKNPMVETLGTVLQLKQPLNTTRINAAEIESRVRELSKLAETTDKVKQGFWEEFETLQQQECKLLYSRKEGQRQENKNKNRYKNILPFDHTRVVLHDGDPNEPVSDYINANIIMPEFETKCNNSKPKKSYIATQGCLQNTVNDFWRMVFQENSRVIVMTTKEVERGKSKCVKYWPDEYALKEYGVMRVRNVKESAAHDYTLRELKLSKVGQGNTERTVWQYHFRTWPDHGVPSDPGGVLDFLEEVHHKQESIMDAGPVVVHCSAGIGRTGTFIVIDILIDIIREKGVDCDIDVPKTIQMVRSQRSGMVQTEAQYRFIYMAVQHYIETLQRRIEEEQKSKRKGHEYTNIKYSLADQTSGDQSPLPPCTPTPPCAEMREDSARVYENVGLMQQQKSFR
Type: biochemical
Experimental: Example E: Protein Tyrosine Phosphatase (PTP) Assay and IC50 Measurements of Inhibitors
The phosphatase activity of SHP2 was monitored using the surrogate substrate DiFMUP in a fluorescence assay format. The phosphatase reactions were performed at room temperature in 96-well black polystyrene plate, flat bottom plate using a final reaction volume of 100 μL with the following assay buffer conditions: 60 mM HEPES, pH 7.2, 75 mM NaCl, 75 mM KCl, 1 mM EDTA, 0.05% Tween-20, 5 mM DTT.
To determine the IC50 of a compound, an eight-point dose response curve was generated in duplicate. Compounds were incubated at concentrations ranging from 0 μM to 10 μM with 100 ng/mL of human recombinant SHP2 and 0.5 μM of activating peptide IRS1_pY1172(dPEG8)pY1222 (sequence H2N-LN(pY)IDLDLV-(dPEG8)LST(pY)ASINFQK-amide) (SEQ ID NO 1). After 30 min incubation at room temperature (23-27° C.), the surrogate substrate DiFMUP (200 μM) was added to the reaction and incubated at room temperature for 30 min. The fluorescence signal was monitored using a microplate reader (Spectramax M5e, […]) using excitation and emission wavelengths of 340 and 450 nm, respectively. The inhibitor dose-response curves were analyzed using SoftmaxPro v5.2 software.
For `Cc1cccc(-c2ncc(N3C[C@@H]4C[C@](C)(N)C[C@@H]4C3)nc2N)c1Cl` [Example 1, (3aR,5r,6aS)-2-(6-amino-5-(2-chloro-3-methylphenyl)pyrazin-2-yl)-5-methyloctahydrocyclopenta[c]pyrrol-5-amine hydrochloride salt], the IC50 was less than 9 µM. With `C[C@]1(N)C[C@H]2CN(c3cnc(-c4cccc(Cl)c4Cl)c(N)n3)C[C@H]2C1` [Example 2, (3aR,5r,6aS)-2-(6-amino-5-(2,3-dichlorophenyl)pyrazin-2-yl)-5-methyloctahydrocyclopenta[c]pyrrol-5-amine] the IC50 was less than 9 µM. `C[C@]1(N)C[C@H]2CN(c3cnc(-c4cccnc4Cl)c(N)n3)C[C@H]2C1` [Example 4, (3aR,5r,6aS)-2-(6-amino-5-(2-chloropyridin-3-yl)pyrazin-2-yl)-5-methyloctahydrocyclopenta[c]pyrrol-5-amine] showed an IC50 of less than 9 µM. Compound `C[C@]1(N)C[C@H]2CN(c3cnc(-c4cccc(Cl)c4F)c(N)n3)C[C@H]2C1` [Example 5, (3aR,5r,6aS)-2-(6-amino-5-(3-chloro-2-fluorophenyl)pyrazin-2-yl)-5-methyloctahydrocyclopenta[c]pyrrol-5-amine] has an IC50 of less than 9 µM. For `C[C@@]1(N)C[C@H]2CN(c3cnc(-c4cccc(Cl)c4Cl)c(N)n3)C[C@H]2C1` [Example 7, (3aR,5s,6aS)-2-(6-amino-5-(2,3-dichlorophenyl)pyrazin-2-yl)-5-methyloctahydrocyclopenta[c]pyrrol-5-amine], the IC50 was less than 9 µM. Work on `Cc1cccc(-c2ncc(N3C[C@@H]4C[C@@](C)(N)C[C@@H]4C3)nc2N)c1Cl` [Example 8, (3aR,5s,6aS)-2-(6-amino-5-(2-chloro-3-methylphenyl)pyrazin-2-yl)-5-methyloctahydrocyclopenta[c]pyrrol-5-amine] yielded an IC50 of less than 9 µM. `C[C@]1(N)C[C@H]2CN(c3ncc(-c4cccc(Cl)c4Cl)c(N)n3)C[C@H]2C1` [Example 11, (3aR,5r,6aS)-2-(4-amino-5-(2,3-dichlorophenyl)pyrimidin-2-yl)-5-methyloctahydrocyclopenta[c]pyrrol-5-amine] was tested, and the IC50 was less than 9 µM. With `C[C@]1(N)C[C@H]2CN(c3ncc(-c4cccc(F)c4Cl)c(N)n3)C[C@H]2C1` [Example 12, (3aR,5r,6aS)-2-(4-amino-5-(2-chloro-3-fluorophenyl)pyrimidin-2-yl)-5-methyloctahydrocyclopenta[c]pyrrol-5-amine] the IC50 was less than 9 µM. Compound `C[C@]1(N)C[C@H]2CN(c3ncc(-c4cccnc4Cl)c(N)n3)C[C@H]2C1` [Example 13, (3aR,5r,6aS)-2-(4-amino-5-(2-chloropyridin-3-yl)pyrimidin-2-yl)-5-methyloctahydrocyclopenta[c]pyrrol-5-amine] has an IC50 greater than 10 µM.
